From US20260262642A1, “Compositions Containing Guanidine and 1,2-Benzisothiazoline-3-On” (priority 2023, published 2026)
Structures can show the parent of a compound that is named as a salt. Each block holds one compound with its values, some of them ahead of it.

Experiments:
Assay type in all cases: cell-based
[1] = test system: Pseudomonas spec. DSM 115322; assay: Study of the synergistic interaction: minimum inhibitory concentrations (MICs) and synergy index in Müller-Hinton broth, microplates; details: 48 hours at 30° C.; for Synergy index Qa/QA + Qb/QB: sole agent
Method: The test organism used was a Gram-negative bacterial species from the group of pseudomonads, Pseudomonas spec. DSM 115322. For this purpose, mixtures with different concentrations of the respective actives were prepared and tested for their effect on pseudomonads. The test was run in Müller-Hinton broth MHB with a cell density of 10^6 microbes per ml. The incubation was run in microplates at 30° C. for 48 hours. After 48 hours, the batches were evaluated for turbidity resulting from growth, and optical density was additionally determined photometrically. In this way, the minimum inhibitory concentrations (MICs) of the two actives were determined individually and in combination. The synergism that occurred was represented numerically by calculating the synergy index (SI). The calculation was done according to the standard method of F. C. Kull et al., Applied Microbiology, vol. 9 (1961), p. 538. This involves calculating the synergy index (SI) by the following formula: […] Calculation of the synergy index of guanidine and BIT with respect to Pseudomonas spec.

[2] = test system: Yeast mixture (Pichia manshurica DSM 12249, Rhodotorula mucilaginosa DSM 12248, Candida boidinii DSM 13622, Candida albicans DSM 1386); assay: Stability of all-purpose detergent (cleaning composition) against microbial infestation, inoculated with yeast mixture, semiquantitative streak evaluation; design: key to Yeast growth Day 1: 0: No growth; Minimal growth, 1 to 10 colonies visible over the entire streak; 2: Light growth, maximum 100 colonies; Moderate growth, maximum 300 to 400 colonies; Uniform growth, >400 colonies, single colonies still clearly recognizable; 5: Heavy growth, too many colonies to count, but no growth over the entire streak; 6: Full growth, barely any single colonies still apparent, growth over the entire streak; details: for Yeast growth Day 1: directly after inoculation; for Yeast growth Day 3: incubation at 30° C.
Method: (§1) The detergent was a heavy-duty laundry detergent without preservatives (pH 8.1), and the cleaning composition was an all-purpose detergent without preservatives (pH 7.6), each likewise made in the laboratory, without addition of the otherwise usual conventional preservatives. To each paint was added—individually and in combination—particular concentrations of guanidinium hydrochloride and benzisothiazolinone (BIT). The detergent and cleaning composition were admixed with particular concentrations of guanidinium hydrochloride and benzisothiazolinone (BIT). The resultant batches of the paint thus prepared were inoculated with a mixture of various bacteria; the batches of the detergent and cleaning composition thus prepared were inoculated with a yeast mixture. • Pichia manshurica DSM 12249 • Rhodotorula mucilaginosa DSM 12248 • Candida boidinii DSM 13622 • Candida albicans DSM 1386 The inoculum was added to the respective sample in each inoculation at 2% (v/w) as a fresh cell suspension in a physiological saline solution (0.9% NaCl). The cell count of the inoculum added was 10^9/ml for the bacteria mixture, 10^8/ml for the yeast mixture, consisting in equal parts of the individual bacteria strains or yeast strains. The cell suspension of the yeast mixture was produced by growing the yeasts on Sabouraud glucose-agar at 25° C. for 48 hours and washing down the cell lawn with physiological saline solution (0.9% NaCl). Further steps for establishment of a cell count of the inoculum suspension of 10^8/ml were effected analogously to the production of the bacteria suspension. In examples 2 to 4, the samples were inoculated once with the respective cell suspensions (2% v/w) and the development of the bacteria or yeasts was followed by a semiquantitative evaluation method. In the inoculated samples, microbial infestation was evaluated in each case directly after inoculation on day 1 and on day 6 (emulsion paint) after incubation at 30° C. for a further 5 days, or on day 3 (detergent, cleaning composition) after incubation at 30° C. for a further 2 days. For this purpose, an aliquot was taken from each sample after homogenization using a sterile plastic inoculation loop (10 μl) and streaked evenly on agar plates (tryptic soy agar in the case of bacteria, Sabouraud glucose-agar in the case of yeasts). The streaked agar plates were then incubated at 30° C. for 48 hours (bacteria) or at 25° C. for 72 hours (yeasts). After incubation, the bacterial or yeast colonies that had grown on the agar plates were visually evaluated and quantified according to the following scheme: [table] Inoculation 2% (w/v) with Yeast Mixture, Cell Count 10^8/ml

[3] = test system: Bacteria mixture (Pseudomonas spp. DSM 33933, Pseudomonas aeruginosa DSM 33935, Pseudomonas oleovorans DSM 33936, Pseudomonas spec. DSM 33937, Pseudomonas …); assay: Stability of emulsion paint against microbial infestation, inoculated with bacteria mixture, semiquantitative streak evaluation; design: key: 0: No growth; Minimal growth, 1 to 10 colonies visible over the entire streak; 2: Light growth, maximum 100 colonies; Moderate growth, maximum 300 to 400 colonies; Uniform growth, >400 colonies, single colonies still clearly recognizable; 5: Heavy growth, too many colonies to count, but no growth over the entire streak; 6: Full growth, barely any single colonies still apparent, growth over the entire streak; details: for Bacterial growth Day 1: directly after inoculation; for Bacterial growth Day 6: incubation at 30° C.
Method: The detergent was a heavy-duty laundry detergent without preservatives (pH 8.1), and the cleaning composition was an all-purpose detergent without preservatives (pH 7.6), each likewise made in the laboratory, without addition of the otherwise usual conventional preservatives. To each paint was added—individually and in combination—particular concentrations of guanidinium hydrochloride and benzisothiazolinone (BIT). The detergent and cleaning composition were admixed with particular concentrations of guanidinium hydrochloride and benzisothiazolinone (BIT). The resultant batches of the paint thus prepared were inoculated with a mixture of various bacteria; the batches of the detergent and cleaning composition thus prepared were inoculated with a yeast mixture. • Pseudomonas spp. (Pseudomonas oleovorans group) DSM 33933 • Pseudomonas aeruginosa DSM 33935 • Pseudomonas oleovorans DSM 33936 • Pseudomonas spec. DSM 33937 • Pseudomonas aeruginosa DSM 33938 The inoculum was added to the respective sample in each inoculation at 2% (v/w) as a fresh cell suspension in a physiological saline solution (0.9% NaCl). The cell count of the inoculum added was 10^9/ml for the bacteria mixture, 10^8/ml for the yeast mixture, consisting in equal parts of the individual bacteria strains or yeast strains. The cell suspension of the bacteria mixture was produced by growing the individual bacteria at 30° C. for 24 h in liquid culture on a shaker. The growth medium used for the bacteria was Müller-Hinton liquid medium. After growing, the individual liquid cultures were centrifuged, and the cells were resuspended in physiological saline solution. In order to adjust the mixture to a total cell count of 10^9/ml, the individual bacteria suspensions, if necessary, were diluted accordingly before being combined with saline solution. The cell count of the inoculum was determined in each case by chamber counting. In examples 2 to 4, the samples were inoculated once with the respective cell suspensions (2% v/w) and the development of the bacteria or yeasts was followed by a semiquantitative evaluation method. In the inoculated samples, microbial infestation was evaluated in each case directly after inoculation on day 1 and on day 6 (emulsion paint) after incubation at 30° C. for a further 5 days, or on day 3 (detergent, cleaning composition) after incubation at 30° C. for a further 2 days. For this purpose, an aliquot was taken from each sample after homogenization using a sterile plastic inoculation loop (10 μl) and streaked evenly on agar plates (tryptic soy agar in the case of bacteria, Sabouraud glucose-agar in the case of yeasts). […] After incubation, the bacterial or yeast colonies that had grown on the agar plates were visually evaluated and quantified according to the following scheme: [table] […]

[4] = test system: Yeast mixture (Pichia manshurica DSM 12249, Rhodotorula mucilaginosa DSM 12248, Candida boidinii DSM 13622, Candida albicans DSM 1386); assay: Stability of heavy-duty laundry detergent against microbial infestation, inoculated with yeast mixture, semiquantitative streak evaluation; design: key: 0: No growth; Minimal growth, 1 to 10 colonies visible over the entire streak; 2: Light growth, maximum 100 colonies; Moderate growth, maximum 300 to 400 colonies; Uniform growth, >400 colonies, single colonies still clearly recognizable; 5: Heavy growth, too many colonies to count, but no growth over the entire streak; 6: Full growth, barely any single colonies still apparent, growth over the entire streak; details: for Yeast growth Day 1: directly after inoculation; for Yeast growth Day 3: incubation at 30° C.
Method: as §1, with “w/v” for “(w/v)”, “a East” for “Yeast”

[5] = all-purpose detergent +100 ppm BIT
[6] = all-purpose detergent +8000 ppm guanidine hydrochloride (4944 ppm guanidine)
[7] = emulsion paint +6000 ppm guanidine hydrochloride (3708 ppm guanidine)
[8] = detergent +8000 ppm guanidine hydrochloride (4944 ppm guanidine)

SMILES: O=c1[nH]sc2ccccc12 [BIT, 1,2-benzisothiazolin-3-one]
- Qb (BIT): concentration of BIT as the sole agent that shows an endpoint (QB, MIC) ([1]; BIT alone (0 ppm guanidine), MHB, 10^6 microbes per ml): 300 ppm
- Synergy index Qa/QA + Qb/QB [1]: 1.00
- Yeast growth Day 1 [2, 5]: 6
- Yeast growth Day 3 [2, 5]: 4 (Uniform growth, >400 colonies, single colonies still clearly recognizable)
- Bacterial growth Day 1 ([3]; emulsion paint +500 ppm BIT): 6
- Bacterial growth Day 6 ([3]; emulsion paint +500 ppm BIT): 6
- Yeast growth Day 1 ([4]; detergent +100 ppm BIT): 6
- Yeast growth Day 3 ([4]; detergent +100 ppm BIT): 4 (Uniform growth, >400 colonies, single colonies still clearly recognizable)

SMILES: N=C(N)N [guanidine hydrochloride]
- Yeast growth Day 1 [2, 6]: 6
- Yeast growth Day 3 [2, 6]: 4 (Uniform growth, >400 colonies, single colonies still clearly recognizable)
- Bacterial growth Day 1 [3, 7]: 6
- Bacterial growth Day 6 [3, 7]: 6
- Yeast growth Day 1 [4, 8]: 6
- Yeast growth Day 3 [4, 8]: 6

- Qa (guanidine): concentration of guanidine as the sole agent that shows an endpoint (QA, MIC) ([1]; guanidine alone (0 ppm BIT), added as guanidine hydrochloride, MHB): 9269 ppm
SMILES: N=C(N)N [guanidine]
- Synergy index Qa/QA + Qb/QB [1]: 1.00
